One experiment relates to p38 MAPK. The experiment can be described thus: Western blot of p38 MAPK phosphorylation in limbal epithelial cells expanded on intact AM. The conditions noted are these: 10 μM. On the technique in general: Immunoblotting shows a protein as a band on a membrane.
The next experiment deals with human limbal explants. The experiment can be described thus: Epithelial outgrowth from human limbal explants cultured on intact AM with kinase inhibitors. The conditions noted are these: 10 μM. The class given is cell-based. The method, then: Human AM was provided by Bio-Tissue (Miami, Fla.) and stored at −80° C. before use. AM was devitalized by freezing and thawing and washed three times with HBSS before being fastened onto a 30 mm culture insert, Millicel-CM (which generated an insert with 23 mm diameter covered by AM), and placed in a 6 well plate (Meller, D. and Tseng S C G, Invest Ophthalmol Vis Sci., 40:878-86, 1999).
After removal of excessive sclera, iris, corneal endothelium, conjunctiva, and Tenon's capsule, the limbal ring was separated by a 7.5 mm trephine from donor human corneas. Each limbal ring was rinsed 3 times with SHEM media. The limbal ring was then exposed for 10 min to 1.2 units/ml Dispase II in Mg^2+- and Ca^2+-free HBSS at 37° C. under 95% humidity and 5% CO2. Following three rinses with SHEM medium, each limbal ring was subdivided into two halves and each half further subdivided into 6 pieces of 1×1.5×2.5 mm explants. To eliminate variations of age, sex, and race, explants from the corresponding position of the same donor cornea were selected for the control and the experimental group, respectively. An explant was placed on the center of intact AM or plastic with the epithelial side facing up and cultured in SHEM medium. The experimental group was added with the inhibitor of desired concentration, while the control group was added with the same concentration of DMSO as the vehicle which was used to dissolve each inhibitor. The culture was maintained at 37° C. under 95% humidity and 5% CO2, the medium was changed every other day, and their outgrowth was monitored daily for 17 days using an inverted phase microscope (Nikon, Japan). The outgrowth area was digitized every other day by Adobe Photoshop 5.5 and analyzed by NIH ImageJ 1.30v (NIH, Bethesda, Md.).
All experiments were performed at least in triplicate. Summary data were reported as means±S.D., compiled and analyzed by MicroSoft Excel™ (MicroSoft, Redmont, Wash.). The mean and standard deviation were calculated for each group using the appropriate version of Student's unpaired t-test. Test results were reported as two-tailed p values, where p<0.05 was considered statistically significant.

The test system of experiment [1] is limbal epithelial progenitor cells. Put plainly: K12 and K10 immunostaining of human limbal explants in airlift culture. The conditions noted are these: SHEM, 2 weeks, 10 μM. The class given is cell-based. On the procedure: (§1) Human limbal tissue cubes can be placed in the alternative on the center of type I collagen coated inserts and cultured in SHEM medium under submerge and airlift manners, of which the later was also added with p38 inhibitor. In the submerge manner, 4 ml culture medium was added to the culture dish to cover the entire limbal explant. In the airlift manner, 2 ml culture medium was added so as to let the insert bottom sit on the air-liquid interface. That is, the explant was exposed to air, but the remaining explant stroma was submerged in the medium meniscus. In the airlift+p38 inhibitor group, p 38 inhibitor SB 203580 was added to culture medium at a concentration of 10 μM. Cultures were incubated at 37° C. under 5% CO2 and 95% air, and the medium is changed every 2 days. Rabbit limbal explants are also cultured in the same fashion as the human tissue. Limbal tissue cubes are placed on the center of type I collagen coated inserts and cultured under airlift manner in SHEM medium with or without p38 inhibitor SB203580 for 1 week.
To study the effect of p38 inhibitor on the differentiation of limbal epithelial progenitor cells, human corneal limbal explants were cultured under submerge and airlift manners, of which the later was added with or without p38 inhibitor, on type I collagen coated inserts in SHEM medium for 2 weeks. […]

The subject of experiment [2] is corneal limbal epithelial cells. The experiment can be described thus: Type IV collagen immunostaining of epithelial outgrowth from human limbal explants on denuded AM. The conditions noted are these: explant on dAM in SHEM. It counts as cell-based.
The next experiment relates to p44/42 MAPK. The experiment can be described thus: Western blot of p44/42 MAPK phosphorylation in limbal epithelial cells expanded on intact AM. It counts as cell-based, human. Particulars: 10 μM.
The test system of experiment [3] is rabbit corneal limbal explant. The experiment can be described thus: Rabbit limbal explant outgrowth on type I collagen coated insert, airlift culture. The class given is cell-based. Particulars: SHEM. On the procedure: as §1
To study the effect of p38 inhibitor on the outgrowth epithelial sheet, rabbit corneal limbal explant is cultured on the type I collagen coated insert under the airlift manner in SHEM medium for 1 week with or without addition of p38 inhibitor (FIG. 2).

From US20070128719A1, “ISOLATION AND EXPANSION OF ANIMAL CELLS IN CELL CULTURES” (TissueTech, Inc., priority 2003, published 2007) come the findings set out here.

Consider `C[S+]([O-])c1ccc(-c2nc(-c3ccncc3)c(-c3ccc(F)cc3)[nH]2)cc1` (stereo not shown) [SB203580], for which the “phosphorylation at Thr180/Tyr182 of p38 MAPK” value in the experiment on p38 MAPK is given as “abolished”. Moreover, the “day at which epithelial outgrowth was noted / started” value in the experiment with human limbal explants was determined as 5 days. The epithelial outgrowth entry with human limbal explants (limbal explant on intact AM in SHEM, up to 17 days, vs DMSO control) is on record as “did not change the outgrowth”. In experiment [1], the “K10 positive cells in limbal and corneal epithelium” value is on record as “no K10 positive cells”; the “K12 expression in the limbal epithelium” value is “restored”. In experiment [2] (2 weeks), the “type IV collagen staining of outgrowth epithelial cells” value was “intracellular staining”. Besides, in experiment [2] (4 weeks), the “type IV collagen staining of outgrowth epithelial cells” value was “strong linear band staining”. Further, the “phosphorylation of p44/42 MAPK (Thr202 and Tyr204)” value in the experiment with p44/42 MAPK is “did increase”. Besides, the “outgrowth rate based on outgrowth surface area” value in experiment [3] (1 week) is “not inhibited”. In addition, the “outgrowth sheet in H&E stained cross-sections” value in experiment [3] (with p38 inhibitor) is “intact and consisted of uniformly two layers”.
